In patent publication US20250082931A1, “Treating Gastric Cancer Using TTFields Combined with XELOX, FOLFOX or the Individual Constituents Thereof” (Novocure GmbH, priority 2019, published 2025):

Experiments:
KATO III cells [1] = assay: Overall effect (cytotoxic effect x clonogenic effect); conditions: 72 h, one experiment
Description: (§1) After 6-14 days the colonies were fixed, stained and counted to determine clonogenic effect. The overall effect was calculated by multiplying the cytotoxic effect and the clonogenic effect.
(§2) Overall effect: Each colony number was multiply in the percent of cytotoxic effect of its dish and averages and standard deviations of each treatment were calculated in Excel software. […] Significant was determine by 2-way ANOVA followed Multiple comparison using GraphPed software.

AGS cells [2] = assay: as above; format: cell-based; conditions: 72 h
Description: as §1, §2

AGS cells [3] = tested on: AGS cells
Description: (§3) During the treatment the media of all dishes was replaced every 24 h (“hours”).
(§4) After 72 h of treatment the media and the cells were collected, and cytotoxicity was determined by cell counts.
(§5) Cells were seeded on inovitro dishes and petri dishes 24 h before starting the experiments. Media containing the indicated concentration of each chemotherapy component alone or FOLFOX and control media was added to the cells and the dishes were connected to TTFields (as in SOP-BI-009) or grown in 37° C., 5% CO2 for 72 h. Each treatment included 8 repeats (8 dishes). The media was replaced every 24 h. At the end of the experiment the cells were collected, and cytotoxicity was determined by cell counts, small number of cells were seeded for colonies and the cells (including cells from the media) were stained for Annexin V and 7AAD for apoptosis analysis.
(§6) A TTFields generator (Inovitro systems) was used to apply the treatment to the cells.
(§7) Cytotoxic effect: Average and standard deviation of cell number of at least 5 dishes from each treatment was calculated in Excel software. The averages from these repeats was calculated to averages and standard error and is presented as percent from control (no drug treatment) in XY graph of points with error bars using GraphPed software. Significant was determine by 2-way ANOVA followed Multiple comparison using GraphPed software.

AGS cells [4] = assay: Clonogenic effect (colonies count); format: cell-based; conditions: for colonies count: 72 h
Description: After 72 h of treatment the media and the cells were collected, and cytotoxicity was determined by cell counts. […] For the testing of the clonogenic effect, cells were seeded for colonies.
as §1
Clonogenic effect: The colonies from each well were counted using ImageJ software. Average and standard deviation of colony number of at least 5 wells from each treatment were calculated in excel software. The averages from these repeats was calculated to averages and standard errors and is presented as percent from control (no drug treatment) in XY graph of points with error bars using GraphPed software. Significant was determine by 2-way ANOVA followed Multiple comparison using GraphPed software.

KATO III cells [5] = assay: Cytotoxic effect by cell count after 72 h, with and without TTFields
Description: as §3, §4, §5, §6, §7

AGS cells [6] = assay: Apoptosis analysis by Annexin V / 7AAD staining; format: cell-based; conditions: 72 h
[7] = 0.2 uM, + TTFields 150 kHz 1.0 V/cm, one experiment
[8] = 0.2 uM, no TTFields, one experiment
[9] = 1 uM, + TTFields 150 kHz 1.0 V/cm, one experiment
[10] = 1 uM, no TTFields, one experiment
[11] = 5 uM, + TTFields 150 kHz 1.0 V/cm, one experiment
[12] = 5 uM, no TTFields, one experiment
[13] = FOLFOX experiment, 5 uM, + TTFields 150 kHz 1.0 V/cm
[14] = FOLFOX experiment, 5 uM, no TTFields
[15] = 10 uM, no TTFields, one experiment
[16] = 10 uM, + TTFields 150 kHz 1.0 V/cm, one experiment

Nc1nc2c(c(=O)[nH]1)N(C=O)C(CNc1ccc(C(=O)N[C@@H](CCC(=O)O)C(=O)O)cc1)CN2 (stereo partly drawn) [Leucovorin]
overall effect (colonies count multiplying the cytotoxic effect) (KATO III cells [1]; 2.5 uM, + TTFields 150 kHz 1.6 V/cm): 32 % from control
overall effect (colonies count multiplying the cytotoxic effect) (KATO III cells [1]; 2.5 uM, no TTFields): 106 % from control
overall effect (colonies count multiplying the cytotoxic effect) (KATO III cells [1]; 5 uM, + TTFields 150 kHz 1.6 V/cm): 35 % from control
overall effect (colonies count multiplying the cytotoxic effect) (KATO III cells [1]; 5 uM, no TTFields): 81 % from control
overall effect (colonies count multiplying the cytotoxic effect) (KATO III cells [1]; 10 uM, + TTFields 150 kHz 1.6 V/cm): 27 % from control
overall effect (colonies count multiplying the cytotoxic effect) (KATO III cells [1]; 10 uM, no TTFields): 78 % from control
overall effect (colonies count multiplying the cytotoxic effect) (AGS cells [2]; [7]): 42.9 % from control
overall effect (colonies count multiplying the cytotoxic effect) (AGS cells [2]; [8]): 86.6 % from control
overall effect (colonies count multiplying the cytotoxic effect) (AGS cells [2]; [9]): 36.7 % from control
overall effect (colonies count multiplying the cytotoxic effect) (AGS cells [2]; [10]): 89.7 % from control
overall effect (colonies count multiplying the cytotoxic effect) (AGS cells [2]; [11]): 41.7 % from control
overall effect (colonies count multiplying the cytotoxic effect) (AGS cells [2]; [12]): 88.8 % from control
overall effect (colonies count multiplying the cytotoxic effect) (AGS cells [2]; [13]): 41 % from control
overall effect (colonies count multiplying the cytotoxic effect) (AGS cells [2]; [14]): 88 % from control
cytotoxic effect of drug alone (AGS cells [3]): does not show
colonies count (AGS cells [4]; [7]): 70 % from control
colonies count (AGS cells [4]; [8]): 88 % from control
colonies count (AGS cells [4]; [9]): 77 % from control
colonies count (AGS cells [4]; [10]): 87 % from control
colonies count (AGS cells [4]; [11]): 70 % from control
colonies count (AGS cells [4]; [12]): 95 % from control
colonies count (AGS cells [4]; [13]): 69 % from control
colonies count (AGS cells [4]; [14]): 103 % from control
clonogenic effect of drug alone (AGS cells [4]; without TTFields): does not show
cell count (KATO III cells [5]; 2.5 uM, + TTFields 150 kHz 1.6 V/cm, one experiment): 58 % from control
cell count (KATO III cells [5]; 2.5 uM, no TTFields, one experiment): 106 % from control
cell count (KATO III cells [5]; 5 uM, + TTFields 150 kHz 1.6 V/cm, one experiment): 51 % from control
cell count (KATO III cells [5]; [12]): 107 % from control
cell count (KATO III cells [5]; 10 uM, + TTFields 150 kHz 1.6 V/cm, one experiment): 47 % from control
cell count (KATO III cells [5]; [15]): 90 % from control
cell count (KATO III cells [5]; FOLFOX experiment, 5 uM, + TTFields 150 kHz 1.6 V/cm): 49 % from control
cell count (KATO III cells [5]; [14]): 102 % from control
AnnV+ 7AAD+ cell fraction (AGS cells [6]; [7]): 5.34%
AnnV+ 7AAD− cell fraction (AGS cells [6]; [7]): 4.69%
AnnV− 7AAD+ cell fraction (AGS cells [6]; [7]): 2.18%
AnnV− 7AAD− cell fraction (AGS cells [6]; [7]): 87.79%
AnnV+ 7AAD+ cell fraction (AGS cells [6]; [8]): 2.25%
AnnV+ 7AAD− cell fraction (AGS cells [6]; [8]): 3.42%
AnnV− 7AAD+ cell fraction (AGS cells [6]; [8]): 2.19%
AnnV− 7AAD− cell fraction (AGS cells [6]; [8]): 92.14%
AnnV+ 7AAD+ cell fraction (AGS cells [6]; [11]): 5.55%
AnnV+ 7AAD− cell fraction (AGS cells [6]; [11]): 5.61%
AnnV− 7AAD+ cell fraction (AGS cells [6]; [11]): 3.04%
AnnV− 7AAD− cell fraction (AGS cells [6]; [11]): 85.8%
AnnV+ 7AAD+ cell fraction (AGS cells [6]; [12]): 2.29%
AnnV+ 7AAD− cell fraction (AGS cells [6]; [12]): 4.12%
AnnV− 7AAD+ cell fraction (AGS cells [6]; [12]): 1.02%
AnnV− 7AAD− cell fraction (AGS cells [6]; [12]): 92.57%
AnnV+ 7AAD+ cell fraction (AGS cells [6]; [16]): 3.74%
AnnV+ 7AAD− cell fraction (AGS cells [6]; [16]): 6.27%
AnnV− 7AAD+ cell fraction (AGS cells [6]; [16]): 2.72%
AnnV− 7AAD− cell fraction (AGS cells [6]; [16]): 87.27%
AnnV+ 7AAD+ cell fraction (AGS cells [6]; [15]): 2.84%
AnnV+ 7AAD− cell fraction (AGS cells [6]; [15]): 5.62%
AnnV− 7AAD+ cell fraction (AGS cells [6]; [15]): 1.01%
AnnV− 7AAD− cell fraction (AGS cells [6]; [15]): 90.54%
AnnV+ 7AAD+ cell fraction (AGS cells [6]; [13]): 10.2%
